Results from the Deep4Chem optical property database.
Several values for one entry are separate records, joined by “and”; a condition that tells them apart may be missing. Equal entries are not always repeated. Blank lines part the entries; values can stand above or below the compound they belong to.

Assay: solvent given as SMILES

SMILES: CCN1\C(=C/C=C/C=C/C2=[N+](CC)c3ccc4cc(Br)ccc4c3C2(C)C)C(C)(C)c2c1ccc1cc(Br)ccc21
- emission maximum (in C1CCOC1): 709 nm
- emission maximum (in CC#N): 699 nm
- emission maximum (in CC(C)=O): 703 nm
- emission maximum (in CCO): 705 nm
- emission maximum (in CN(C)C=O): 705 nm
- emission maximum (in CO): 702 nm
- emission maximum (in CS(C)=O): 709 nm
- emission maximum (in ClCCl): 714 nm

- emission maximum (in C1CCOC1): 493 nm
SMILES: COc1ccc(-c2cc3c(cc2OC)-c2c(c4c(c5c2-c2cc(OC)c(-c6ccc(OC)cc6)cc2C5)C(=O)N(CCC(C)C)C4=O)C3)cc1

- emission maximum (in CC#N): 354 nm
- emission maximum (in CCCCCC): 329 nm
- emission maximum (in CO): 359 nm
SMILES: c1ccc2c(c1)CCc1ccccc1N2

SMILES: CC(C)(C)c1ccc2c(c1)c1cc(C(C)(C)C)ccc1n2-c1ccc(-c2nc3cc(C#N)c(C#N)cc3nc2-c2ccc(-n3c4ccc(C(C)(C)C)cc4c4cc(C(C)(C)C)ccc43)cc2)cc1
- emission maximum (in Cc1ccccc1): 544 nm

- emission maximum (in ClCCl): 742 nm
SMILES: CCCCCCOc1cc(N(CC)CC)ccc1/C=C(\C#N)c1ccc(/C=C/C(=C(C#N)C#N)c2ccc3c(c2)c2ccccc2n3CC)s1

- emission maximum (in ClC(Cl)Cl): 434 nm
SMILES: F[B-]1(F)OC(c2ccc(C(F)(F)F)cc2)=Cc2ccc3ccccc3[n+]21

- emission maximum (in C1CCOC1): 373 nm
- emission maximum (in CC#N): 363 nm
- emission maximum (in CS(C)=O): 385 nm
- emission maximum (in ClC(Cl)Cl): 377 nm
SMILES: COc1cccc2cc(-c3ccc([N+](=O)[O-])cc3)c(=O)oc12

SMILES: CCn1c2ccccc2c2cc(/C=C/c3cccc[n+]3CCCS(=O)(=O)[O-])ccc21
- emission maximum (in C1CCOC1): 559 nm
- emission maximum (in CC#N): 565 nm
- emission maximum (in CC(C)=O): 565 nm
- emission maximum (in Cc1ccccc1): 590 nm

SMILES: Cc1ccc(-c2ccc(/C=C/c3cccn3C)cn2)nc1
- emission maximum (in C1COCCO1): 464 nm
- emission maximum (in CC#N): 488 nm
- emission maximum (in CCCCCC): 436 nm
- emission maximum (in CCO): 501 nm
- emission maximum (in CN(C)C=O): 493 nm
- emission maximum (in CO): 507 nm
- emission maximum (in CS(C)=O): 500 nm
- emission maximum (in Cc1ccccc1): 459 nm
- emission maximum (in ClC(Cl)Cl): 476 nm
- emission maximum (in c1ccccc1): 464 nm

SMILES: CCCCC1=Cc2c3ccc4cccc5ccc(c6cc(-c7ccc(N(c8ccccc8)c8ccccc8)cc7)n(c26)P1(=O)c1ccccc1)c3c45 (stereo not given)
- emission maximum (in C1CCCCC1): 502 nm
- emission maximum (in C1CCOC1): 541 nm
- emission maximum (in C1COCCO1): 526 nm
- emission maximum (in CC#N): 572 nm
- emission maximum (in CC(C)=O): 560 nm
- emission maximum (in CO): 563 nm
- emission maximum (in Cc1ccccc1): 518 nm
- emission maximum (in ClC(Cl)Cl): 537 nm
- emission maximum (in ClCCl): 551 nm

- emission maximum (in O): 552 nm
SMILES: CCN(CC)c1ccc2c(c1)C(C)(C)C(=O)C=C2

- emission maximum (in C1CCOC1): 523 nm
- emission maximum (in CC#N): 546 nm
- emission maximum (in CC(C)O): 557 nm
- emission maximum (in CCO): 559 nm
- emission maximum (in CN(C)C=O): 543 nm
- emission maximum (in CO): 565 nm
- emission maximum (in CS(C)=O): 551 nm
- emission maximum (in O): 573 nm
- emission maximum (in OCC(O)CO): 567 nm
SMILES: CC(=O)c1ccc2ccc3c(NCCC(=O)NCCCCCCc4nc5c(=O)[nH]c(N)nc5n4[C@H]4C[C@H](O)[C@@H](CO)O4)ccc4ccc1c2c43

SMILES: c1ccc(-c2nc(-c3ccc(-c4nc(-c5ccccc5)c(-c5ccccc5)[nH]4)s3)[nH]c2-c2ccccc2)cc1
- emission maximum (in C1CCOC1): 457 nm
- emission maximum (in CC#N): 458 nm
- emission maximum (in CC(=O)O): 503 nm and 502.99 nm
- emission maximum (in CC(C)=O): 460 nm and 458 nm
- emission maximum (in CCOC(C)=O): 457 nm
- emission maximum (in CCOCC): 454 nm and 454.01 nm
- emission maximum (in CO): 457 nm
- emission maximum (in ClC(Cl)Cl): 485 nm and 484.99 nm

- emission maximum (in C1CCOC1): 563 nm
- emission maximum (in CC#N): 632 nm
- emission maximum (in CCCCCC): 491 nm
SMILES: COCCN1C(=O)/C(=C/c2cccc(N(C)C)c2)N=C1C

- emission maximum (in CS(C)=O): 508 nm
SMILES: O=[N+]([O-])c1ccc(N/C=C/C=[NH+]c2ccc([N+](=O)[O-])cc2)cc1

- emission maximum (in ClCCl): 442 nm
SMILES: O=c1c2ccccc2nc2ccccn12

- emission maximum (in CC#N): 439 nm
- emission maximum (in CCO): 483 nm
SMILES: CC1(C)CC(=O)c2ccccc2N1

- emission maximum (in C1COCCO1): 527 nm
- emission maximum (in CC#N): 530 nm
- emission maximum (in CO): 532 nm
- emission maximum (in ClCCCl): 531 nm
SMILES: CCn1c(=O)nc2n(C)c3cc(C)ccc3nc-2c1=O

- emission maximum (in C1CCOC1): 417 nm
- emission maximum (in C1COCCO1): 418 nm
- emission maximum (in CC#N): 418 nm
- emission maximum (in CC(C)O): 423 nm
- emission maximum (in CCO): 429 nm
- emission maximum (in CCOC(C)=O): 416 nm
- emission maximum (in CN(C)C=O): 422 nm
- emission maximum (in CO): 432 nm
- emission maximum (in CS(C)=O): 425 nm
- emission maximum (in O): 448 nm
SMILES: COc1ccc(C2CC(c3ccc(O)cc3)=NN2c2ccc(S(N)(=O)=O)cc2)cc1 (stereo not given)

SMILES: CCn1c2ccccc2c2cc(-c3cc(-c4ccc5c(c4)c4ccccc4n5CC)nc(-c4ccccc4)n3)ccc21
- emission maximum (in C1CCOC1): 391 nm
- emission maximum (in CCOC(C)=O): 389 nm
- emission maximum (in CN(C)C=O): 415 nm
- emission maximum (in Cc1ccccc1): 380 nm
- emission maximum (in ClCCl): 405 nm

SMILES: Cc1cc(C)c(-c2nnc(-c3ccc(-n4c5ccccc5c5ccccc54)cc3)o2)c(C)c1
- emission maximum (in CCO): 435 nm
- emission maximum (in Cc1ccccc1): 379 nm

SMILES: CC(C)CCC[C@@H](C)[C@H]1CC[C@H]2[C@@H]3CC=C4C[C@@H](OC(=O)Oc5cc(/C=C/C=C/c6ccc(N(C)C)cc6)ccc5[N+](=O)[O-])CC[C@]4(C)[C@H]3CC[C@]12C
- emission maximum (in C1CCCCC1): 505 nm
- emission maximum (in C1CCOC1): 677 nm
- emission maximum (in C1COCCO1): 620 nm
- emission maximum (in CCCCCCC): 502 nm
- emission maximum (in Cc1ccccc1): 595 nm

SMILES: COc1ccc(-c2c3ccccc3c3n2[B-](F)(F)[N+]2=Cc4c5ccccc5c(-c5ccc(OC)cc5)n4[B-](F)(F)[N+]2=C3)cc1
- emission maximum (in CC#N): 606 nm
- emission maximum (in CCCCCC): 607 nm
- emission maximum (in CN(C)C=O): 613 nm
- emission maximum (in Cc1ccccc1): 616 nm
- emission maximum (in ClCCl): 614 nm

SMILES: O=S(=O)([O-])c1ccccc1/C=C/c1ccc(-c2nnc(-c3ccc(/C=C/c4ccccc4S(=O)(=O)[O-])cc3)o2)cc1
- emission maximum (in C1CCOC1): 415 nm
- emission maximum (in CC(C)=O): 416 nm
- emission maximum (in CN(C)C=O): 422 nm

SMILES: N#Cc1c(-n2c3ccc(Br)cc3c3cc(Br)ccc32)c(-n2c3ccc(Br)cc3c3cc(Br)ccc32)c(C#N)c(-n2c3ccc(Br)cc3c3cc(Br)ccc32)c1-n1c2ccc(Br)cc2c2cc(Br)ccc21
- emission maximum (in Cc1ccccc1): 546 nm

- emission maximum (in C1CCCCC1): 436 nm
- emission maximum (in C1CCOC1): 446 nm
- emission maximum (in CC#N): 449 nm
- emission maximum (in ClC(Cl)Cl): 443 nm
- emission maximum (in c1ccccc1): 444 nm
SMILES: Cc1cc(C)c(B(c2c(C)cc(C)cc2C)c2cc3ccc4ccccc4c3c3c2ccc2ccccc23)c(C)c1

- emission maximum (in CO): 473 nm
SMILES: COc1ccc(-c2nc(-c3ccc(C#N)cc3)[nH]c2-c2ccc(OC)cc2)cc1

- emission maximum (in ClC(Cl)Cl): 479 nm
SMILES: COc1ccc(-c2nc(-c3ccc(OC)cc3)n3ccccc23)cc1

- emission maximum (in C1COCCO1): 487 nm
- emission maximum (in CC#N): 492 nm
- emission maximum (in CCCCOCCCC): 486 nm
- emission maximum (in CCOC(C)=O): 488 nm
SMILES: c1ccc(Nc2nc(Nc3ccccc3)nc(Nc3ccc4c5cccc6cccc(c7cccc3c74)c65)n2)cc1

- emission maximum (in C1CCOC1): 483 nm
- emission maximum (in CC#N): 495 nm
- emission maximum (in ClC(Cl)Cl): 490 nm
- emission maximum (in ClCCl): 492 nm
SMILES: COc1cc(/C=C/c2nc3ccccc3o2)c(OC)cc1/C=C/c1nc(C)nc(C)n1

- emission maximum (in ClCCl): 395 nm
SMILES: c1ccc([Si]2(c3ccccc3)c3ccccc3-c3cc4c(cc32)-c2ccccc2[Si]4(c2ccccc2)c2ccccc2)cc1

- emission maximum (in CS(C)=O): 403 nm
SMILES: O=C1CC(=O)Nc2cc([N+](=O)[O-])ccc2N1

- emission maximum (in C1CCOC1): 392 nm
SMILES: Cc1sc(-c2ccc(-c3nc(-c4ccccc4)c(-c4ccccc4)[nH]3)cc2)c(C)c1C1=C(c2c(C)n(C)c3ccccc23)C(F)(F)C(F)(F)C1(F)F

SMILES: CCCCCCCCCCCCNc1cccc2[n+]1[B-](F)(F)n1c(c3cccc4cccc1c43)=N2
- emission maximum (in C1CCOC1): 523 nm
- emission maximum (in CC#N): 519 nm
- emission maximum (in CCCCCC): 509 nm
- emission maximum (in Cc1ccccc1): 529 nm
- emission maximum (in ClCCl): 522 nm

- emission maximum (in C1CCOC1): 492 nm
SMILES: c1ccc(/C(=C(\c2ccccc2)c2ccccc2-c2ccc(-c3ccccc3)cc2)c2ccccc2-c2ccc(-c3ccccc3)cc2)cc1

SMILES: CCCCC[n+]1ccc(/C=C/c2ccc(N(C)C)c3ccccc23)c2ccccc21
- emission maximum (in C1CCOC1): 697 nm
- emission maximum (in C1COCCO1): 680 nm
- emission maximum (in CC#N): 720 nm
- emission maximum (in CC(C)=O): 714 nm
- emission maximum (in CCCCO): 695 nm
- emission maximum (in CCO): 670 nm
- emission maximum (in CN(C)C=O): 721 nm
- emission maximum (in CO): 708 nm
- emission maximum (in CS(C)=O): 720 nm
- emission maximum (in O): 697 nm
- emission maximum (in c1ccccc1): 675 nm
- emission maximum (in c1ccncc1): 706 nm

SMILES: CCC1=C(C)C2=C(c3c4ccccc4c(C)c4ccccc34)c3c(C)c(CC)c(C)n3[B-](F)(F)[N+]2=C1C
- emission maximum (in CC#N): 538 nm
- emission maximum (in CCCCCC): 540 nm
- emission maximum (in CCO): 538 nm
- emission maximum (in CN(C)C=O): 540 nm
- emission maximum (in Cc1ccccc1): 544 nm
- emission maximum (in ClCCl): 543 nm

SMILES: CC(C)(C)c1ccc2c(c1)c1cc(C(C)(C)C)ccc1n2-c1cccc(C(=O)c2cccc(-n3c4ccc(C(C)(C)C)cc4c4cc(C(C)(C)C)ccc43)n2)n1
- emission maximum (in C1CCOC1): 378.66 nm
- emission maximum (in Cc1ccccc1): 381.64 nm
- emission maximum (in ClCCl): 383.6 nm

SMILES: CCCCOC(=O)c1cc(Oc2ccc(OC)cc2)c2c3c(Cl)cc4c5c(cc(Cl)c(c6c(Oc7ccc(OC)cc7)cc(C(=O)OCCCC)c1c26)c53)C(=O)N(c1c(C(C)C)cccc1C(C)C)C4=O
- emission maximum (in Cc1ccccc1): 599 nm

- emission maximum (in ClCCl): 486 nm
SMILES: COc1ccc(C#Cc2ccc3nc4ccc(C#Cc5ccc(OC)cc5)cn4c(=O)c3c2)cc1

- emission maximum (in O): 450 nm
SMILES: NC(=O)C1=CN([C@H]2C[C@H](O)[C@@H](COP(=O)([O-])OP(=O)([O-])OC[C@H]3O[C@@H](n4cnc5c(N)ncnc54)C[C@@H]3O)O2)C=CC1

- emission maximum (in ClC(Cl)Cl): 457 nm
SMILES: COc1ccc(-c2nc(-c3ccccc3)c(N(c3ccccc3)c3ccccc3)s2)cc1

- emission maximum (in ClCCl): 435 nm
SMILES: CSc1ccc(/C=C/c2ccncn2)cc1

- emission maximum (in CC#N): 406 nm
SMILES: CN(C)c1ccc(-c2nc3cc(C(F)(F)F)ccc3n2-c2ccccc2)cc1

- emission maximum (in CCO): 564 nm
SMILES: CCOC(=O)c1cc(C(=O)OCC)c2cc(N(C)C)ccc2n1

- emission maximum (in CC#N): 367 nm
SMILES: Clc1ccc(-c2nc3ccccc3n2-c2ccccc2)cc1
